According to patent US9655889B2, “Inhibitors of human immunodeficiency virus replication” (priority 2013, dated 2017):

Test system: recombinant NL-Rluc virus
Assay: Inhibition of HIV replication (NL-RLuc virus luciferase assay in MT-2 cells)
Assay type: cell-based
Settings: Human immunodeficiency virus 1, MT2, 120 h

Compound `Cc1cc(CNC(=O)c2cn3c(N4CCC(C)(C)CC4)c([C@H](OC(C)(C)C)C(=O)O)c(C)cc3n2)ccc1F` [Example 1, (S)-2-(tert-Butoxy)-2-(5-(4,4-dimethylpiperidin-1-yl)-2-((4-fluoro-3-methylbenzyl)carbamoyl)-7-methylimidazo[1,2-a]pyridin-6-yl)acetic acid] has an EC50 of 8 nM.
`Cc1cc2nc(-c3ncc(Cc4ccc(F)cc4)o3)cn2c(N2CCC(C)(C)CC2)c1[C@H](OC(C)(C)C)C(=O)O` [Example 2, (S)-2-(tert-Butoxy)-2-(5-(4,4-dimethylpiperidin-1-yl)-2-(5-(4-fluorobenzyl)oxazol-2-yl)-7-methylimidazo[1,2-a]pyridin-6-yl)acetic acid] showed an EC50 of 2 nM.
Compound `Cc1cc2nc(-c3ncc(Cc4ccc(F)cc4)s3)cn2c(N2CCC(C)(C)CC2)c1[C@H](OC(C)(C)C)C(=O)O` [Example 3, (S)-2-(tert-Butoxy)-2-(5-(4,4-dimethylpiperidin-1-yl)-2-(5-(4-fluorobenzyl)thiazol-2-yl)-7-methylimidazo[1,2-a]pyridin-6-yl)acetic acid] has an EC50 of 21 nM.
Work on `Cc1cc2nc(-c3nc(Cc4ccccc4)no3)cn2c(N2CCC(C)(C)CC2)c1[C@H](OC(C)(C)C)C(=O)O` [Example 4, (S)-2-(2-(3-Benzyl-1,2,4-oxadiazol-5-yl)-5-(4,4-dimethylpiperidin-1yl)-7-methylimidazo[1,2-a]pyridin-6-yl)-2-(tert-butoxy)acetic acid] yielded an EC50 of 3 nM.
`Cc1cc2nc(-c3nnc(Cc4ccccc4)o3)cn2c(N2CCC(C)(C)CC2)c1[C@H](OC(C)(C)C)C(=O)O` [Example 5, (S)-2-(2-(5-Benzyl-1,3,4-oxadiazol-2-yl)-5-(4,4-dimethylpiperidin-1-yl)-7-methylimidazo[1,2-a]pyridin-6-yl)-2-(tert-butoxy)acetic acid] showed an EC50 of 8 nM.
In the case of `Cc1cc2nc(-c3nc(Cl)c(Cc4ccc(F)cc4)[nH]3)cn2c(N2CCC(C)(C)CC2)c1[C@H](OC(C)(C)C)C(=O)O` [Example 6, (S)-2-(tert-Butoxy)-2-(2-(4-chloro-5-(4-fluorobenzyl)-1H-imidazol-2-yl)-5-(4,4-dimethylpiperidin-1-yl)-7-methylimidazo[1,2-a]pyridin-6)acetic acid], the EC50 is reported as 13 nM.
`Cc1cc2nc(-c3ncc(Cc4ccc(F)cc4)[nH]3)cn2c(N2CCC(C)(C)CC2)c1[C@H](OC(C)(C)C)C(=O)O` [Example 7, (S)-2-(tert-Butoxy)-2-(5-(4,4-dimethylpiperidin-1-yl)-2-(5-(4-fluorobenzyl)-1H-imidazol-2-yl)-7-methylimidazo[1,2-a]pyridin-6-yl)acetic acid] was tested, and the EC50 was 34 nM.
Work on `C=CCOC1(C)CCN(c2c([C@H](OC(C)(C)C)C(=O)O)c(C)cc3nc(NS(=O)(=O)Cc4ccc(F)cc4)cn23)CC1` [Example 8, (S)-2-(5-(4-(Allyloxy)-4-methylpiperidin-1-yl)-2((4-fluorophenyl)methylsulfonamido)-7-methylimidazo[1,2-a]pyridin-6-yl)-2-(tert-butoxy)acetic acid] yielded an EC50 of 3300 nM.
With `C=CCOC1(C)CCN(c2c([C@H](OC(C)(C)C)C(=O)O)c(C)cc3nc(NS(=O)(=O)c4ccc(F)cc4)cn23)CC1` [Example 9, (S)-2-(5-(4-(Allyloxy)-4-methylpiperidin-1-yl)-2-(4-fluorophenylsulfonamido)-7-methylimidazo[1,2-a]pyridin-6-yl)-2-(tert-butoxy)acetic acid] the EC50 was 6030 nM.
